From PubChem BioAssay (NCI) come the findings set out here.

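In this assay, cells in 96-well plates receive the compound at five concentrations for 48 hours. Endpoints are linearly interpolated between the surrounding concentrations. The concentration for full growth arrest is given as TGI.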 A value given as a limit tells only on which side of the number the result lay.

Among the test systems are CCRF-CEM leukemia; DU-145 prostate; HCC-2998 colon; HOP-92 NSCLC; IGROV1 ovarian; KM12 colon; LOX IMVI melanoma; MDA-MB-435; MOLT-4 leukemia; NCI-H522 lung; NCI/ADR-RES ovarian; PC-3 prostate; SK-MEL-2 melanoma; SK-MEL-28 melanoma; SR leukemia; TK-10 renal.
Experiment in all cases: NCI-60 cell line screen, 48 h

As for `COC1=CC(=O)N(C)C(O)C1(C#N)OC1OC(CO)C(O)C(O)C1O` (configuration not stated), the TGI with CCRF-CEM leukemia is > 10 µM; with DU-145 prostate, > 100 µM; with HCC-2998 colon it was > 100 µM; in the test on HOP-92 NSCLC, > 100 µM; in the test on IGROV1 ovarian, > 100 µM; with KM12 colon, > 100 µM. The TGI in the test on LOX IMVI melanoma, with MDA-MB-435, in the test with MOLT-4 leukemia, in the test with NCI-H522 lung, with NCI/ADR-RES ovarian and in the test on PC-3 prostate was > 100 µM each time. Besides, the TGI in the test on SK-MEL-2 melanoma, in the test with SK-MEL-28 melanoma, in the test on SR leukemia and with TK-10 renal was > 100 µM throughout.
As to `CCOC1=C(c2ccccc2)N2CCCCC2O1` (configuration not stated), the TGI is > 72.4 µM in the test on CCRF-CEM leukemia; > 86.8 µM with DU-145 prostate; 12.8 µM in the test with HCC-2998 colon; 6 µM in the test with HOP-92 NSCLC; > 51.4 µM with IGROV1 ovarian; 14 µM in the test on KM12 colon. The TGI in the test on LOX IMVI melanoma was 13.8 µM; with MDA-MB-435 it was 16.8 µM; with MOLT-4 leukemia, > 73 µM; in the test on NCI-H522 lung, 13.4 µM; in the test on NCI/ADR-RES ovarian, > 96.4 µM; in the test on PC-3 prostate it was 22.3 µM. The TGI in the test with SK-MEL-2 melanoma is 7.99 µM; in the test on SK-MEL-28 melanoma, > 63.2 µM; in the test with SR leukemia it was > 31.6 µM; with TK-10 renal it was > 38.6 µM.
`CCOc1cc2c(cc1O)C(O)C[C@@H]1[C@@H]2CC[C@]2(C)[C@@H](O)CC[C@@H]12` (some centres not stated): the TGI in the test on CCRF-CEM leukemia is > 100 µM; in the test with DU-145 prostate, > 74 µM; with HCC-2998 colon, 30.4 µM; with HOP-92 NSCLC, > 100 µM; with IGROV1 ovarian, > 100 µM; in the test on KM12 colon, > 100 µM. The TGI with LOX IMVI melanoma is > 100 µM; in the test with MDA-MB-435, > 100 µM; in the test with MOLT-4 leukemia, > 100 µM; with NCI-H522 lung it was 0.95 µM; in the test on NCI/ADR-RES ovarian, 4.04 µM; with PC-3 prostate, > 100 µM. For the same compound, the TGI in the test with SK-MEL-2 melanoma, in the test with SK-MEL-28 melanoma, in the test on SR leukemia and in the test with TK-10 renal was > 100 µM each time.
Turning to `Cc1ccccc1NC(=O)CC(=O)NNC(Sc1ccccc1)c1cc(N=Nc2ccc(Br)cc2)ccc1O` (configuration not stated), the TGI in the test on CCRF-CEM leukemia, with DU-145 prostate, in the test on HCC-2998 colon, with HOP-92 NSCLC, in the test on IGROV1 ovarian and with KM12 colon was > 10 µM in each case. Besides, the TGI with LOX IMVI melanoma is 9.11 µM; in the test with MDA-MB-435, > 10 µM; in the test on MOLT-4 leukemia, 3.1 µM; with NCI-H522 lung, > 10 µM; in the test with NCI/ADR-RES ovarian, 9.08 µM; with PC-3 prostate, > 10 µM. The TGI in the test with SK-MEL-2 melanoma is > 10 µM; with SK-MEL-28 melanoma it was > 10 µM; in the test on SR leukemia, 4.07 µM; with TK-10 renal, > 10 µM.
For `COc1cccc(C2c3cc4c(cc3OC(Nc3ccccc3)C2C)OCO4)c1O` (configuration not stated), the TGI in the test on CCRF-CEM leukemia is 16.6 µM; in the test on DU-145 prostate it was > 53.9 µM; in the test with HCC-2998 colon, 36.3 µM; in the test with HOP-92 NSCLC it was 9.93 µM; in the test on IGROV1 ovarian, 35.5 µM; with KM12 colon it was 24.8 µM. The TGI was 18.9 µM with LOX IMVI melanoma; 5.66 µM with MDA-MB-435; 16 µM in the test on MOLT-4 leukemia; 20.6 µM in the test with NCI-H522 lung; > 100 µM with NCI/ADR-RES ovarian; 36.9 µM in the test on PC-3 prostate. The TGI in the test with SK-MEL-2 melanoma worked out at 51.9 µM; in the test with SK-MEL-28 melanoma it was 27 µM; with SR leukemia it was 7.25 µM; with TK-10 renal, 64.2 µM.
Turning to `O=C(O)c1cccc(NC(C(=O)c2ccccc2)c2ccccc2)c1` (configuration not stated), the TGI with CCRF-CEM leukemia, in the test with DU-145 prostate, in the test with HCC-2998 colon, in the test with HOP-92 NSCLC, in the test on IGROV1 ovarian and with KM12 colon was > 100 µM throughout. Besides, the TGI in the test with LOX IMVI melanoma, in the test with MDA-MB-435, in the test with MOLT-4 leukemia, in the test on NCI-H522 lung, with NCI/ADR-RES ovarian and with PC-3 prostate was > 100 µM each time. Also, the TGI in the test on SK-MEL-2 melanoma, with SK-MEL-28 melanoma, in the test with SR leukemia and in the test with TK-10 renal was > 100 µM in each case.
As to `CC(C)CCOC(=O)NC(Nc1ccc(F)cc1)(C(F)(F)F)C(F)(F)F`, the TGI with CCRF-CEM leukemia was 99.5 µM; with DU-145 prostate, > 100 µM; with HCC-2998 colon, > 100 µM; in the test on HOP-92 NSCLC, > 100 µM; in the test with IGROV1 ovarian it was > 100 µM; in the test on KM12 colon, > 100 µM. For the same compound, the TGI is > 100 µM with LOX IMVI melanoma; > 100 µM in the test on MDA-MB-435; 76.8 µM in the test with MOLT-4 leukemia; 69.4 µM in the test on NCI-H522 lung; > 100 µM in the test on NCI/ADR-RES ovarian; > 100 µM in the test on PC-3 prostate. Further, the TGI in the test with SK-MEL-2 melanoma is > 100 µM; with SK-MEL-28 melanoma, > 100 µM; with SR leukemia it was 25.4 µM; with TK-10 renal, > 100 µM.
